According to patent US5298494A, “Monosaccharides having anti-proliferation and anti-inflammatory activity, compositions and uses thereof” (Greenwich Pharmaceuticals Incorporated, priority 1993, dated 1994):
Like-named read-outs stand apart in the source and are kept apart here.

Test system: T lymphocytes (normal mouse spleen cells) stimulated with ConA
Experiment: Mouse Spleen Cell ConA Blastogenesis Assay
Type: cell-based, mouse (C57Bl/6)
Conditions: for inhibition at 0.01 µg/mL / inhibition at 0.1 µg/mL / inhibition at 1 µg/mL / inhibition at 2.5 µg/mL / inhibition at 10 µg/mL / inhibition at 25 µg/mL / inhibition at 100 µg/mL / inhibition at 0.001 µg/mL / inhibition at 300 µg/mL / inhibition at 750 µg/mL: Mus musculus, T-lymphocyte; for inhibition at 300 µg/mL: compound 300 ug/ml; for inhibition at 750 µg/mL: compound 750 ug/ml
Excerpt: It is well known that several plant lectins, when cultured in vitro with lymphocytes, stimulate cellular activation and proliferation. Concanavolin, (ConA) selectively stimulates the blastogenic response of T lymphocytes.
Six to 8 week old male C57Bl/6 mice were purchased from Harlan Sprague Dawley (Indianapolis, Ind.).
Spleens were removed and were homogenized to obtain a single cell suspension. Erythrocytes were lysed by hypotonic shock. Upon determination of the viability and concentration of the lymphoid cells, they were adjusted to 4×10^6 cells/ml in culture medium (RPMI-1640) supplemented with 10% fetal bovine serum; 100 ug/ml streptomycin; 100 U/ml penicillin, 0.2M hepes buffer; 5×10^-5 M 2-mercaptoethanol and 2 mM glutamine). seeded into microtiter plate wells at 2×10^5 cells/0.050 ml/well. To these cultures were added various doses of experimental compounds and ConA at a final concentration of 4 or 1 ug/ml. Control cultures consisted of cells, ConA and culture medium containing the vehicle, DMSO only. […] For the testing of the methyl 1,3-O-isopropylidene-6-O-n-heptyl-α-D-fructofuranoside compound indomethacin and NDGA were used as controls. All cultures were run in triplicate.
Solutions of compounds of the invention in DMSO were prepared and dilutions were made in culture medium. Assay concentrations were either: 1, 2.5, 10, 25, 100, 300 and 750 ug/ml or 0.001, 0.01, 0.1, 1, 2.5, 10, 25 and 100 ug/ml.
Cultures were incubated for 3 days at 37° C. in a humidified atmosphere of 5% of CO2 in air. For the last 18 hours of culture, 1 uCi of ^3 H-thymidine was also incubated in each well. The cells were precipitated by a multi-channel harvester. The amount of ^3 H-thymidine incorporated by the cultures, as a measure of cell proliferation, was measured in a liquid scintillation counter. The amount of radioactive incorporation is proportional to the amount of cellular proliferation in individual wells. The students T test was used to determine the significance of the difference between experimental and control values.

[1] = ConA 1 ug/ml, compound 0.01 ug/ml, read-out: % change from control, ConA blastogenic response
[2] = ConA 1 ug/ml, compound 0.1 ug/ml, read-out: % change from control, ConA blastogenic response
[3] = ConA 1 ug/ml, compound 1 ug/ml, read-out: % change from control, ConA blastogenic response
[4] = ConA 1 ug/ml, compound 2.5 ug/ml, read-out: % change from control, ConA blastogenic response
[5] = ConA 1 ug/ml, compound 10 ug/ml, read-out: % change from control, ConA blastogenic response
[6] = ConA 1 ug/ml, compound 25 ug/ml, read-out: % change from control, ConA blastogenic response
[7] = ConA 1 ug/ml, compound 100 ug/ml, read-out: % change from control, ConA blastogenic response
[8] = ConA 4 ug/ml, compound 0.01 ug/ml, read-out: % change from control, ConA blastogenic response
[9] = ConA 4 ug/ml, compound 0.1 ug/ml, read-out: % change from control, ConA blastogenic response
[10] = ConA 4 ug/ml, compound 1 ug/ml, read-out: % change from control, ConA blastogenic response
[11] = ConA 4 ug/ml, compound 2.5 ug/ml, read-out: % change from control, ConA blastogenic response
[12] = ConA 4 ug/ml, compound 10 ug/ml, read-out: % change from control, ConA blastogenic response
[13] = ConA 4 ug/ml, compound 25 ug/ml, read-out: % change from control, ConA blastogenic response
[14] = ConA 4 ug/ml, compound 100 ug/ml, read-out: % change from control, ConA blastogenic response
[15] = ConA 1 ug/ml, read-out: % change from control, ConA blastogenic response
[16] = ConA 4 ug/ml, read-out: % change from control, ConA blastogenic response

CCCCCCCC(=O)O[C@@H]1[C@@H](CO)O[C@@]2(OC)COC(C)(C)O[C@@H]12 [Ih, methyl 1,3-O-isopropylidene-4-O-octanoyl-α-D-fructofuranoside]
inhibition at 0.01 µg/mL (ConA 1 ug/ml, 0.01 ug/ml, read-out: % Change from Control (Table II)): -12%
inhibition at 0.01 µg/mL [1]: -32%
inhibition at 0.1 µg/mL [2]: -29%
inhibition at 1 µg/mL [3]: -61%
inhibition at 2.5 µg/mL [4]: -63%
inhibition at 10 µg/mL [5]: 4%
inhibition at 25 µg/mL [6]: -39%
inhibition at 100 µg/mL [7]: 74%
inhibition at 0.01 µg/mL (ConA 4 ug/ml, 0.01 ug/ml, read-out: % Change from Control (Table II)): -18%
inhibition at 0.01 µg/mL [8]: -29%
inhibition at 0.1 µg/mL [9]: -14%
inhibition at 1 µg/mL [10]: -16%
inhibition at 2.5 µg/mL [11]: -8%
inhibition at 10 µg/mL [12]: 22%
inhibition at 25 µg/mL [13]: 14%
inhibition at 100 µg/mL [14]: 90%

CC1(C)OCC(C2OC3OC(C)(C)OC3C2NCCCO)O1 [IIk, 1,2:5,6-Di-O-isopropylidene-3-deoxy-3-amino-1'-(3'-hydroxy-n-propyl)-α-D-glucofuranose]
inhibition at 100 µg/mL (100 ug/ml, read-out: strong inhibition of ConA stimulated T lymphocyte proliferation): < 50%
inhibition at 1 µg/mL [3]: 20%
inhibition at 2.5 µg/mL [4]: 31%
inhibition at 10 µg/mL [5]: 38%
inhibition at 25 µg/mL [6]: 45%
inhibition at 100 µg/mL [7]: 95%
inhibition at 1 µg/mL [10]: 5%
inhibition at 2.5 µg/mL [11]: 0%
inhibition at 10 µg/mL [12]: 4%
inhibition at 25 µg/mL [13]: 5%
inhibition at 100 µg/mL [14]: 83%

CCCCCCCO[C@@H]1[C@@H](CO)O[C@@]2(CO)OC(C)(C)O[C@@H]12 [Ik, 2,3-O-isopropylidene-4-O-heptyl-β-D-fructofuranose]
Blastogenic response of normal spleen cells to Con-A (ConA 1 ug/ml, compound 0.001 ug/ml): 139.5 ± 4.0 × 10^-3 cpm
Blastogenic response of normal spleen cells to Con-A (ConA 1 ug/ml, compound 0.01 ug/ml): 146.4 ± 5.2 × 10^-3 cpm
Blastogenic response of normal spleen cells to Con-A (ConA 1 ug/ml, compound 0.1 ug/ml): 145 ± 6.9 × 10^-3 cpm
Blastogenic response of normal spleen cells to Con-A (ConA 1 ug/ml, compound 1 ug/ml): 119.1 ± 3.3 × 10^-3 cpm
Blastogenic response of normal spleen cells to Con-A (ConA 1 ug/ml, compound 2.5 ug/ml): 98.5 ± 7.0 × 10^-3 cpm
Blastogenic response of normal spleen cells to Con-A (ConA 1 ug/ml, compound 25 ug/ml): 1.4 ± 0.2 × 10^-3 cpm
Blastogenic response of normal spleen cells to Con-A (ConA 1 ug/ml, compound 100 ug/ml): 0.3 ± 0.1 × 10^-3 cpm
Blastogenic response of normal spleen cells to Con-A (ConA 4 ug/ml, compound 0.001 ug/ml): 167.1 ± 16.7 × 10^-3 cpm
Blastogenic response of normal spleen cells to Con-A (ConA 4 ug/ml, compound 0.01 ug/ml): 212.6 ± 16.3 × 10^-3 cpm
Blastogenic response of normal spleen cells to Con-A (ConA 4 ug/ml, compound 0.1 ug/ml): 183.6 ± 10.4 × 10^-3 cpm
Blastogenic response of normal spleen cells to Con-A (ConA 4 ug/ml, compound 1 ug/ml): 135.3 ± 10.8 × 10^-3 cpm
Blastogenic response of normal spleen cells to Con-A (ConA 4 ug/ml, compound 2.5 ug/ml): 90.4 ± 7.8 × 10^-3 cpm
Blastogenic response of normal spleen cells to Con-A (ConA 4 ug/ml, compound 10 ug/ml): 18.4 ± 0.2 × 10^-3 cpm
Blastogenic response of normal spleen cells to Con-A (ConA 4 ug/ml, compound 25 ug/ml): 2.5 ± 0.4 × 10^-3 cpm
Blastogenic response of normal spleen cells to Con-A (ConA 4 ug/ml, compound 100 ug/ml): 0.4 ± 0.1 × 10^-3 cpm
inhibition at 0.001 µg/mL (ConA 1 ug/ml, compound 0.001 ug/ml, read-out: % change from control, ConA blastogenic response): -11%
inhibition at 0.01 µg/mL [1]: -8%
inhibition at 0.1 µg/mL [2]: 3%
inhibition at 1 µg/mL [3]: 19%
inhibition at 2.5 µg/mL [4]: 21%
inhibition at 10 µg/mL [5]: 79%
inhibition at 25 µg/mL [6]: 99%
inhibition at 100 µg/mL [7]: 100%
inhibition at 0.001 µg/mL (ConA 4 ug/ml, compound 0.001 ug/ml, read-out: % change from control, ConA blastogenic response): 8%
inhibition at 0.01 µg/mL [8]: -14%
inhibition at 0.1 µg/mL [9]: 8%
inhibition at 1 µg/mL [10]: 35%
inhibition at 2.5 µg/mL [11]: 51%
inhibition at 10 µg/mL [12]: 91%
inhibition at 25 µg/mL [13]: 99%
inhibition at 100 µg/mL [14]: 100%

CCCCCCCSC[C@H]1OC(C)(C)O[C@@H]2[C@H]3OC(C)(C)O[C@H]3O[C@@H]21 [IIIn, 1,2:3,5-Di-O-Isopropylidene-6-deoxy-6-thio-n-heptyl-β-D-glucofuranose]
inhibition at 1 µg/mL [3]: 4%
inhibition at 10 µg/mL [5]: 29%
inhibition at 25 µg/mL [6]: 27%
inhibition at 100 µg/mL [7]: 84%
inhibition at 300 µg/mL [15]: 99%
inhibition at 750 µg/mL [15]: 99%
inhibition at 1 µg/mL [10]: -1%
inhibition at 10 µg/mL [12]: 12%
inhibition at 25 µg/mL [13]: 16%
inhibition at 100 µg/mL [14]: 76%
inhibition at 300 µg/mL [16]: 99%
inhibition at 750 µg/mL [16]: 98%
strong antiproliferative effect on ConA blastogenic response (concentration not given): greater than -50 % of control
